Assays:
Format in all cases: cell-based, human
[1] = system: A549 NSCLC cells; experiment: Immunofluorescent staining of microtubules in cultured cells; conditions: for microtubule phenotype of mitotic or G2/M arrested cells: 24 hours treatment, anti-alpha-tubulin staining; for microtubule phenotype, agent added for the last 4 hours of 24 hours BAL27862 treatment: combination
Description: A549 human non-small cell lung cancer (NSCLC, ATCC reference number CCL-185) cells, HeLa cervical cancer cells (ATCC reference number CCL-2) and SKBR3 breast carcinoma cells (ATCC reference number HTB-30) were seeded at densities of 50% on round microscope coverslips and cultured for 24 hours in RPMI-1640 containing 10% FCS (also referred to as FBS) at 37° C., 5% CO2. Compounds to be tested were dissolved in DMSO. The cell culture medium was replaced with medium containing the diluted compound(s) (paclitaxel, vinblastine, colchicine and nocodazole were purchased from Sigma-Aldrich) or vehicle. After treatment, coverslips were washed and cells were fixed in methanol/acetone (1:1) for 5 minutes at room temperature and subsequently incubated in blocking buffer (0.5% BSA and 0.1% TX-100 in PBS) for 30 minutes at room temperature. Specimens were then incubated with anti-alpha-tubulin antibody (Sigma, 1:2000) for 1 hour at room temperature in blocking buffer. After several washing steps cells were incubated with AlexaFluor-488 goat-anti-mouse IgG (Molecular Probes, 1:3000) for 1 hour at room temperature followed by several washing steps with blocking buffer. Specimens were then mounted with ProLong Gold antifade (Molecular Probes), sealed with nail polish and examined with a Leica immunofluorescence microscope. Images were captured with a cooled CCD-camera and processed by ImageJ software.

[2] = system: GXF251; experiment: Colony outgrowth assay, patient-derived tumour xenograft cells; parameters: key: S: BAL27862-sensitive tumour cells have IC70 values in the low nanomolar range; R: BAL27862-resistant tumour cells are defined by IC70 values >600 nanomolar; conditions: Gastric
Description: (§1) Single cell suspensions of patient-derived tumour xenografts (maintained in nude mice) were prepared. For colony outgrowth assays, cells were plated in soft agar in 24-well plates according to the assay introduced by Hamburger & Salmon (Primary bioassay of human tumour stem cells, Science, 1977, 197:461-463). 2.0E+04-6.0E+04 cells in 0.2 mL medium containing 0.4% agar were plated out on a bottom layer of 0.75% agar. Test compounds were applied in 0.2 mL culture medium. Every 24-well plate contained untreated controls and samples in triplicates. Cultures were incubated at 37° C. and 7.5% CO2 for 5-28 days. 24 hours prior to analysis, vital colonies were stained with a solution of metabolizable tetrazolium salt (Alley M C et al, Life Sci. 1982, 31:3071-3078) and were counted with an automatic image analysis system (Omnicon 3600, Biosys GmbH).
(§2) Relative drug effects were expressed by the ratio of the mean number of colonies in the treated wells and the control wells. IC70-values were determined by plotting compound concentrations versus relative colony counts.

[3] = system: GXF97; experiment: as above; parameters: key: S: BAL27862-sensitive tumour cells have IC70 values in the low nanomolar range; R: BAL27862-resistant tumour cells are defined by IC70 values >600 nanomolar; conditions: Gastric
Description: as §1, §2

[4] = system: LXFA629; experiment: as above; parameters: key: S: BAL27862-sensitive tumour cells have IC70 values in the low nanomolar range; R: BAL27862-resistant tumour cells are defined by IC70 values >600 nanomolar; conditions: Lung
Description: as §1, §2

[5] = system: LXFL529; experiment: as above; parameters: key: S: BAL27862-sensitive tumour cells have IC70 values in the low nanomolar range; R: BAL27862-resistant tumour cells are defined by IC70 values >600 nanomolar; conditions: Lung
Description: as §1, §2

[6] = system: tumour cells derived from patient-derived tumours from gastric and lung cancer; experiment: Colony outgrowth assay, all tumour models
Description: as §1, with “GmbH). Relative drug effects were expressed by the ratio of the mean number of colonies in the treated wells and the control wells. IC70-values were determined by plotting compound concentrations versus relative colony counts.” for “GmbH).”

[7] = system: BAL27862-resistant cells; experiment: Crystal Violet assay of BAL27862-resistant cell lines, all lines
Description: (§3) BAL27862-resistant sublines of human non-small cell lung cancer (H460 ATCC reference HTB-177; A549 ATCC reference CCL-185), ovarian cancer (SKOV3 ATCC reference HTB-77) lines were generated by long-term selection in complete cell culture medium (RPMI-1640 containing 10% FCS; Sigma-Aldrich) by stepwise increasing concentrations of BAL27862. […] The resistant sublines were expanded at the highest tolerated BAL27862 concentration and subsequently frozen and stored in liquid nitrogen.
(§4) After medium was removed, cells were fixed and stained by adding 50 μl Crystal Violet Staining (0.2% Crystal Violet in 50% Methanol) per well. Plates were incubated for 1 hour at room temperature. Subsequently the stain was decanted and plates were washed 4 times with double-distilled water. Plates were air-dried for several hours. Stain was dissolved by adding 100 μl buffer (0.1 M Tris pH 7.5, 0.2% SDS, 20% Ethanol) per well and shaking the plates. Absorbance at 590 nm was measured using a SpectraMax M2e plate reader (Molecular Devices). Anti-proliferative IC50 values were calculated from concentration response curves using GraphPad Prism software. Resistance factors were calculated as a ratio of BAL27862 IC50 in the resistant line variant versus the IC50 in the parental line.

[8] = system: A549; experiment: Crystal Violet assay of BAL27862-resistant cell line versus parental line; conditions: 72 hours incubation, Crystal Violet
Description: as §3, §4

[9] = system: H460; experiment: as above; conditions: 72 hours incubation, Crystal Violet
Description: as §3, §4

[10] = system: SKOV3 resistant 1; experiment: as above; conditions: 72 hours incubation, Crystal Violet
Description: as §3, §4

[11] = system: SKOV3 resistant 2; experiment: as above; conditions: 72 hours incubation, Crystal Violet
Description: as §3, §4

Structure (SMILES) | microtubule phenotype of mitotic or G2/M arrested cells [1] | microtubule phenotype, agent added for the last 4 hours of 24 hours BAL27862 treatment [1] | Sensitive (S)/Resistant (R), by IC70 in colony outgrowth [2] | Sensitive (S)/Resistant (R), by IC70 in colony outgrowth [3] | Sensitive (S)/Resistant (R), by IC70 in colony outgrowth [4] | Sensitive (S)/Resistant (R), by IC70 in colony outgrowth [5] | resistance or sensitivity to treatment, same ex vivo assay [6] | also measured
Nc1ccc(C(=O)Cn2c(-c3nonc3N)nc3ccccc32)cc1 [Compound B, 2-[2-(4-Amino-furazan-3-yl)-benzoimidazol-1-yl]-1-(4-amino-phenyl)-ethanone] | highly reproducible and distinct microtubule phenotype | – | – | – | – | – | – | –
COC(=O)Nc1nc2ccc(C(=O)c3cccs3)cc2[nH]1 [Nocodazole, nocodazole] | mitotic microtubule phenotypes characteristic of these agents | no impact on the observed microtubule phenotype | – | – | – | – | – | –
N#CCCNc1nonc1-c1nc2ccccc2n1CC(=O)c1ccc(N)nc1 [Compound C, 3-(4-{1-[2-(6-Amino-pyridin-3-yl)-2-oxo-ethyl]-1H-benzoimidazol-2-yl}-furazan-3-ylamino)-propionitrile] | highly reproducible and distinct microtubule phenotype | – | – | – | – | – | – | –
CC(=O)O[C@H]1C(=O)[C@@]2(C)[C@H]([C@H](OC(=O)c3ccccc3)[C@]3(O)C[C@H](OC(=O)[C@H](O)[C@@H](NC(=O)c4ccccc4)c4ccccc4)C(C)=C1C3(C)C)[C@]1(OC(C)=O)CO[C@@H]1C[C@@H]2O [Paclitaxel, paclitaxel] | mitotic microtubule phenotypes characteristic of these agents | no impact on the observed microtubule phenotype | R (BAL27862-resistant tumour cells are defined by IC70 values >600 nanomolar) | R (BAL27862-resistant tumour cells are defined by IC70 values >600 nanomolar) | R (BAL27862-resistant tumour cells are defined by IC70 values >600 nanomolar) | R (BAL27862-resistant tumour cells are defined by IC70 values >600 nanomolar) | resistant | response of BAL27862-resistant cells versus parental [7]: increased sensitivity
COc1cc2c(c(OC)c1OC)-c1ccc(OC)c(=O)cc1[C@@H](NC(C)=O)CC2 [Colchicine, colchicine] | mitotic microtubule phenotypes characteristic of these agents | no impact on the observed microtubule phenotype | – | – | – | – | – | Resistance factors (ratio of IC50 BAL27862-resistant cell line variant and IC50 parental cell line) [8]: 0.9; Resistance factors (ratio of IC50 BAL27862-resistant cell line variant and IC50 parental cell line) [9]: 1.6; Resistance factors (ratio of IC50 BAL27862-resistant cell line variant and IC50 parental cell line) [10]: 2.0; Resistance factors (ratio of IC50 BAL27862-resistant cell line variant and IC50 parental cell line) [11]: 2.8
CC[C@]1(O)C[C@@H]2CN(CCc3c([nH]c4ccccc34)[C@@](C(=O)OC)(c3cc4c(cc3OC)N(C)[C@H]3[C@@](O)(C(=O)OC)[C@H](OC(C)=O)[C@]5(CC)C=CCN6CC[C@]43[C@@H]65)C2)C1 [Vinblastine, vinblastine] | mitotic microtubule phenotypes characteristic of these agents | no impact on the observed microtubule phenotype | S | S | S | S | sensitive | –
